We go through nine molecules from paper PMC10999543, “Identification of kinase modulators as host-directed therapeutics against intracellular methicillin-resistant Staphylococcus aureus” (Frontiers in Cellular and Infection Microbiology, 2024).

SMILES strings stand for the structures. Like-named read-outs stand apart in the source and are kept apart here.

Data set [1] concerns intracellular MRSA. It is filed as cell-based, Staphylococcus aureus. As to conditions: for %GFP+ rep 1 / z-scoreMRSA+ rep 1: replicate 1; for %GFP+ rep 2 / z-scoreMRSA+ rep 2: replicate 2; for %GFP+ rep 3 / z-scoreMRSA+ rep 3: replicate 3; for z-scoreMRSA+ mean: mean of 3 replicates. The procedure, abridged:
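HeLa, MRSA-GFP at MOI ~6.8, 1 h infection; gentamicin 30 µg/ml for 15 min; inhibitor plus gentamicin 5 µg/ml overnight, 37°C/5% CO2; triplicate plates; FACS %GFP+ and cell count; hit = z ≤ -2 MRSA+, z ≥ -3 count.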

In data set [2] the test system is HeLa cells. The data set can be described thus: Compound screen by flow cytometry: HeLa cell count as surrogate readout of cell viability (z-scoreHeLa). It is filed as cell-based, human. As to conditions: for cell count rep 1 / z-scoreHeLa rep 1: replicate 1; for cell count rep 2 / z-scoreHeLa rep 2: replicate 2; for cell count rep 3 / z-scoreHeLa rep 3: replicate 3; for z-scoreHeLa mean: mean of 3 replicates. The procedure, abridged:
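HeLa cells were infected with GFP-MRSA (mean MOI 6.8 ± 4.6) for 1 h, and extracellular bacteria were killed with 30 µg/ml gentamicin. Cells were then incubated overnight with kinase inhibitors in 5 µg/ml gentamicin, in triplicate against DMSO controls. Flow-cytometric cell count served as a viability surrogate, expressed as a plate z-score.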

Setting [3] is: PKIS compound screen raw data, MRSA-infected HeLa cells.
Where [4] appears, read: PKIS compound screen, MRSA-infected HeLa cells.
Setting [5] is: PKIS compound screen, Yes/No call (effect without cell death).
[6] abbreviates: PKIS compound screen, Yes/No call on z-scoreMRSA+.
[7] abbreviates: PKIS compound screen raw data, HeLa cell count.
The mark [8] stands for this setting: PKIS compound screen, HeLa cell count.
Setting [9] is: PKIS compound screen, Yes/No call on z-scoreHeLa.
Where [10] appears, read: PKIS compounds raw data, MRSA-infected HeLa cells.
[11] abbreviates: Yes/No: effect without cell death.
Where [12] appears, read: compound screen, MRSA-infected HeLa cells.
[13] abbreviates: PKIS compounds raw data, HeLa cell count.
The mark [14] stands for this setting: compound screen, HeLa cell count.
The mark [15] stands for this setting: PKIS compound screen, Yes/No call.

In the case of `CS(=O)(=O)Nc1ccc(-c2cc(-c3ccccc3)cc(C(N)=O)c2N)cc1` [GSK586581A], in data set [1] (setting [3]), the “%GFP+ rep 1” value came to 17.7%, the “%GFP+ rep 2” value is 16.5% and the “%GFP+ rep 3” value was found to be 20.3%. In addition, in data set [1] (setting [4]), the “z-scoreMRSA+ mean” value is -0.17, the “z-scoreMRSA+ rep 1” value was -0.05, the “z-scoreMRSA+ rep 2” value is on record as -0.61 and the “z-scoreMRSA+ rep 3” value is given as 0.16. For the same molecule, the hit entry in data set [1] (setting [5]) is reported as “No”. Besides, the effect result in data set [1] (setting [6]) is “No”. Moreover, in data set [2] (setting [7]), the “cell count rep 1” value was 20516, the “cell count rep 2” value stood at 41456 and the “cell count rep 3” value is on record as 41123. Also, in data set [2] (setting [8]), the z-scoreHeLa mean amounted to 0.47, the “z-scoreHeLa rep 1” value was 0.06, the “z-scoreHeLa rep 2” value is listed as 1.24 and the “z-scoreHeLa rep 3” value worked out at 0.09. Moreover, in data set [2] (setting [9]), the cell death result was “No”.

Take `CN(C)C(=O)O[C@@H]1CN[C@@H](C#Cc2cc3ncnc(Nc4ccc(OCc5cccc(F)c5)c(Cl)c4)c3s2)C1` [GSK238063A]: in data set [1] (setting [10]), the “%GFP+ rep 1” value is listed as 8.6%, the “%GFP+ rep 2” value came out at 9.6% and the “%GFP+ rep 3” value was determined as 9.8%. In addition, the effect entry in data set [1] (Yes/No call from z-scoreMRSA+) was “No”. For the same molecule, the hit entry in data set [1] (setting [11]) is “No”. In data set [1] (setting [12]), the “z-scoreMRSA+ mean” value is on record as -1.52, the “z-scoreMRSA+ rep 1” value is reported as -1.46, the “z-scoreMRSA+ rep 2” value was -1.30 and the “z-scoreMRSA+ rep 3” value is -1.81. Further, in data set [2] (setting [13]), the “cell count rep 1” value is reported as 3194, the “cell count rep 2” value amounted to 3723 and the “cell count rep 3” value amounted to 4546. For the same molecule, the cell death entry in data set [2] (Yes/No call from z-scoreHeLa) is “No”. In data set [2] (setting [14]), the z-scoreHeLa mean is given as -1.00, the “z-scoreHeLa rep 1” value is -1.43, the “z-scoreHeLa rep 2” value is -0.41 and the “z-scoreHeLa rep 3” value is recorded as -1.16.

Take `Nc1nccc2scc(-c3ccc4c(c3)CCN4C(=O)Cc3ccccc3)c12` [GSK2576924A]: in data set [1] (setting [3]), the “%GFP+ rep 1” value is 25.5%, the “%GFP+ rep 2” value is reported as 24.3% and the “%GFP+ rep 3” value was determined as 22.9%. Also, the effect entry in data set [1] (Yes/No call from z-scoreMRSA+) is on record as “No”. Also, the hit result in data set [1] (setting [11]) was “No”. In addition, in data set [1] (setting [12]), the “z-scoreMRSA+ mean” value is 0.22, the “z-scoreMRSA+ rep 1” value worked out at 0.05, the “z-scoreMRSA+ rep 2” value is recorded as 0.41 and the “z-scoreMRSA+ rep 3” value was 0.21. In addition, in data set [2] (setting [7]), the “cell count rep 1” value was 3006, the “cell count rep 2” value amounted to 3066 and the “cell count rep 3” value is given as 3447. Also, the cell death result in data set [2] (Yes/No call from z-scoreHeLa) was “No”. In data set [2] (setting [14]), the z-scoreHeLa mean is -1.02, the “z-scoreHeLa rep 1” value is listed as -0.97, the “z-scoreHeLa rep 2” value is on record as -0.95 and the “z-scoreHeLa rep 3” value is -1.13.

With `c1ccc(-c2n[nH]cc2Nc2ccnc3ccccc23)nc1` [GW694077X], in data set [1] (setting [3]), the “%GFP+ rep 1” value is listed as 15.2%, the “%GFP+ rep 2” value is reported as 17.2% and the “%GFP+ rep 3” value was determined as 15.3%. In data set [1] (setting [4]), the “z-scoreMRSA+ mean” value is on record as -1.06, the “z-scoreMRSA+ rep 1” value is listed as -0.96, the “z-scoreMRSA+ rep 2” value was -0.60 and the “z-scoreMRSA+ rep 3” value is recorded as -1.62. In data set [1] (setting [5]), the hit entry is “No”. Moreover, the effect result in data set [1] (setting [6]) is “No”. For the same molecule, in data set [2] (setting [7]), the “cell count rep 1” value is 27159, the “cell count rep 2” value is 28509 and the “cell count rep 3” value came out at 18866. Moreover, in data set [2] (setting [8]), the z-scoreHeLa mean is listed as 0.01, the “z-scoreHeLa rep 1” value is -0.51, the “z-scoreHeLa rep 2” value turned out to be 0.55 and the “z-scoreHeLa rep 3” value is -0.0113. Besides, in data set [2] (setting [9]), the cell death entry is “No”.

As for `Cc1ccc(Nc2ccnc(Nc3cccc(C(N)=O)c3)n2)cc1O` [GW575808A], in data set [1] (setting [3]), the “%GFP+ rep 1” value came out at 13.4%, the “%GFP+ rep 2” value was found to be 14.8% and the “%GFP+ rep 3” value is given as 16.1%. Further, in data set [1] (setting [4]), the “z-scoreMRSA+ mean” value is on record as -1.22, the “z-scoreMRSA+ rep 1” value is -1.41, the “z-scoreMRSA+ rep 2” value is on record as -1.12 and the “z-scoreMRSA+ rep 3” value was -1.12. Besides, in data set [1] (setting [5]), the hit entry is on record as “No”. The effect result in data set [1] (setting [6]) is “No”. Besides, in data set [2] (setting [7]), the “cell count rep 1” value came to 19398, the “cell count rep 2” value was 38059 and the “cell count rep 3” value is listed as 43165. Moreover, in data set [2] (setting [8]), the z-scoreHeLa mean amounted to 0.31, the “z-scoreHeLa rep 1” value is recorded as -0.11, the “z-scoreHeLa rep 2” value came out at 0.61 and the “z-scoreHeLa rep 3” value is listed as 0.42. Also, in data set [2] (setting [9]), the cell death result is given as “No”.

As for `COc1cccc(NC(=O)NC2CCN(c3ccnc(Nc4cc(OC)c(OC)c(OC)c4)n3)C2)c1` (stereo not drawn) [GSK1379763A], in data set [1] (setting [3]), the “%GFP+ rep 1” value came out at 13.0%, the “%GFP+ rep 2” value is listed as 15.3% and the “%GFP+ rep 3” value is 16.3%. Moreover, in data set [1] (setting [4]), the “z-scoreMRSA+ mean” value was -1.34, the “z-scoreMRSA+ rep 1” value was -1.54, the “z-scoreMRSA+ rep 2” value is recorded as -1.12 and the “z-scoreMRSA+ rep 3” value is -1.35. The hit result in data set [1] (setting [5]) is recorded as “No”. Besides, the effect entry in data set [1] (setting [6]) is “No”. Further, in data set [2] (setting [7]), the “cell count rep 1” value turned out to be 25281, the “cell count rep 2” value is given as 24740 and the “cell count rep 3” value was found to be 24420. Moreover, in data set [2] (setting [8]), the z-scoreHeLa mean worked out at 0.05, the “z-scoreHeLa rep 1” value is reported as -0.83, the “z-scoreHeLa rep 2” value was -0.09 and the “z-scoreHeLa rep 3” value is on record as 1.07. Further, the cell death entry in data set [2] (setting [9]) is given as “No”.

Turning to `Cn1cc(-c2ccc3c(c2)CCN3C(=O)Cc2cc(F)cc(C(F)(F)F)c2)c2c(N)ncnc21` [GSK2635225A], in data set [1] (setting [3]), the “%GFP+ rep 1” value was found to be 22.6%, the “%GFP+ rep 2” value came out at 22.9% and the “%GFP+ rep 3” value was determined as 20.1%. Also, in data set [1] (Yes/No call from z-scoreMRSA+), the effect result is on record as “No”. In data set [1] (setting [11]), the hit entry is on record as “No”. Moreover, in data set [1] (setting [12]), the “z-scoreMRSA+ mean” value was -0.39, the “z-scoreMRSA+ rep 1” value is given as -0.62, the “z-scoreMRSA+ rep 2” value is given as 0.07 and the “z-scoreMRSA+ rep 3” value was -0.63. In data set [2] (setting [7]), the “cell count rep 1” value was 4783, the “cell count rep 2” value was 4290 and the “cell count rep 3” value worked out at 4665. Further, the cell death entry in data set [2] (Yes/No call from z-scoreHeLa) is given as “No”. In data set [2] (setting [14]), the z-scoreHeLa mean is given as -0.02, the “z-scoreHeLa rep 1” value was determined as 0.31, the “z-scoreHeLa rep 2” value is given as -0.0088 and the “z-scoreHeLa rep 3” value was -0.36.

Take `Cn1cc(-c2ccc3c(c2)CCN3C(=O)Cc2cccc(F)c2)c2c(N)ncnc21` [GSK2603358A]: the effect result in data set [1] (setting [15]) was “No”. The hit entry in data set [1] (setting [5]) is on record as “No”. Also, in data set [1] (PKIS compound screen), the “z-scoreMRSA+ mean” value worked out at 0.42, the “z-scoreMRSA+ rep 1” value is recorded as -0.03, the “z-scoreMRSA+ rep 2” value is given as 0.66 and the “z-scoreMRSA+ rep 3” value turned out to be 0.62. Besides, in data set [1] (setting [10]), the “%GFP+ rep 1” value is 26.9%, the “%GFP+ rep 2” value is 29.5% and the “%GFP+ rep 3” value turned out to be 30.6%. Further, in data set [2] (setting [15]), the cell death result is listed as “No”. In data set [2] (PKIS compound screen), the z-scoreHeLa mean is given as 0.76, the “z-scoreHeLa rep 1” value is -0.12, the “z-scoreHeLa rep 2” value stood at 0.60 and the “z-scoreHeLa rep 3” value was determined as 1.79. Also, in data set [2] (setting [13]), the “cell count rep 1” value was found to be 5847, the “cell count rep 2” value is 6919 and the “cell count rep 3” value is reported as 8427.

Take `COc1cccc(CC(=O)N2CCc3cc(-c4cn(C)c5ncnc(N)c45)ccc32)c1` [GSK2608899A]: in data set [1] (setting [3]), the “%GFP+ rep 1” value stood at 26.6%, the “%GFP+ rep 2” value is 25.5% and the “%GFP+ rep 3” value was determined as 23.7%. The effect entry in data set [1] (Yes/No call from z-scoreMRSA+) was “No”. In addition, the hit entry in data set [1] (setting [11]) is on record as “No”. In data set [1] (setting [12]), the “z-scoreMRSA+ mean” value is 0.49, the “z-scoreMRSA+ rep 1” value was 0.31, the “z-scoreMRSA+ rep 2” value is reported as 0.70 and the “z-scoreMRSA+ rep 3” value came out at 0.45. In data set [2] (setting [7]), the “cell count rep 1” value came to 3096, the “cell count rep 2” value was found to be 2695 and the “cell count rep 3” value came to 3225. For the same molecule, the cell death result in data set [2] (Yes/No call from z-scoreHeLa) was “No”. In data set [2] (setting [14]), the z-scoreHeLa mean is -1.14, the “z-scoreHeLa rep 1” value is -0.91, the “z-scoreHeLa rep 2” value is reported as -1.24 and the “z-scoreHeLa rep 3” value is listed as -1.27.
